Assay [1] is described as follows: "Pole Climbing" test (rat). It is filed as in vivo. The settings on record: ip, 6 h; for ED50: Rattus norvegicus, read-out: Pole-Climbing BCR (Block of Conditioned Reflex) ED50 i.p.; for ED10: rat, i.p., inhibition of the unconditioned reaction, ED 10, read-out: Pole-Climbing BUR (Block of Unconditioned Reflex) ED10 i.p. The text has this:
"Pole Climbing" test (rat)
In this test, there was used, for each dosage, a group of 10 rats which had been trained to escape an electric shock, unconditioned stimulus, produced via the lattice floor immediately after an acoustic signal, conditioned stimulus, by jumping up a vertical isolated pole in the experimental cage.

A short description of the next assay: Writhing test (mouse). It is filed as in vivo. The note with it: po, 1 h, male mice, p.o., 60 minutes after administration. As to the method:
Eight male mice (20-22 g.) per dosage, were used for this test. Sixty minutes after oral administration of the test substance, the mice were injected intraperitoneally with 10 ml/kg of the test solution. Following a latent period of 5 minutes, the number of animals in which no more than one characteristic writhing symptom (convulsive stretching movement of the body) occurred over five minutes was registered.
(In writhing tests, fewer writhes than in controls are read as antinociception.)

A short description of a further assay: Hot-plate test (mouse). It is filed as in vivo. The note with it: po, 1 h, mice, p.o., 60 minutes after administration, plate 60°±0.5° C. As to the method:
Eight mice (20-22 g) were used per dosage. Sixty minutes after oral administration of the test substance, the mice were placed on a heated metal plate of 60°±0.5° C. Untreated mice begin to lick their paws within a maximum of 10 seconds.
On the technique in general: In hot-plate and tail-flick tests a longer latency is read as antinociception.

Assay [2] addresses T1, calf striatum (specific binding of [^3 H] spiroperidol on the receptor) (Bos taurus, UniProt P20288).
T1 construct: calf striatum was used as the receptor; from tissue; host or cells: calf striatum
As to the kind of experiment: Spiroperidol-binding test (in vitro). The note with it: 50% detachment of specific [^3 H] spiroperidol binding. As to the method:
Spiroperidol-binding test (in vitro)
In this in vitro test calf striatum was used as the receptor [Creese et al., Life Sci. 17, 993 (1975)] and incubated with [^3 H] spiroperidol in analogy to the method described by Fields et al., Brain Research 136, 578 (1977).

The structures appear in SMILES notation. Counter-ions that a name gives are not always drawn.

T1 sequence (P20288 whole entry): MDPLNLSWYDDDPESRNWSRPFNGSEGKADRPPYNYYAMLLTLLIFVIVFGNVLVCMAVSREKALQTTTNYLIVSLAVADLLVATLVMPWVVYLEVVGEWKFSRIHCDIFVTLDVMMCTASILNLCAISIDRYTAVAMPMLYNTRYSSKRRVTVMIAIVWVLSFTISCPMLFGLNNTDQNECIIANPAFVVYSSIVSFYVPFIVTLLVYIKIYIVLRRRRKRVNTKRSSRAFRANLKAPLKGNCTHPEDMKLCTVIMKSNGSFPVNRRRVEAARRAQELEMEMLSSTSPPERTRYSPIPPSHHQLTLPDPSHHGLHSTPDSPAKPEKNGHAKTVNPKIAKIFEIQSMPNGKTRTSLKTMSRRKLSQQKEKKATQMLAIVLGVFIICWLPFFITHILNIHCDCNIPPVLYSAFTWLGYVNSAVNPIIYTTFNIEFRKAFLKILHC

For orientation: ED50 means the dose at which the effect has come halfway, by size or by number of responders. On to `O=c1[nH]c2cc(Cl)ccc2n1[C@@H]1CCN2C[C@@H](c3ccccc3F)CC[C@@H]2C1` (relative stereo) [rac-1-[(9aβH)-7β-(o-Fluorophenyl)octahyro-2H-quinolizin-2α-yl]-5-chloro-2-benzimidazolinone HCl], for which, in assay [1], the ED50 is 0.064 mg/kg and the ED10 was 0.175 mg/kg.

For `CCCC[C@]1(OC(C)=O)CCN2C[C@@H](c3ccccc3)CC[C@@H]2C1` (relative stereo) [rac-(9aβH)-2α-n-Butyl-7β-phenyl-octahydro-2H-quinozilin-2-yl acetate HCl], the ED50 in the assay “Writhing test (mouse)” was determined as 0.75 mg/kg; in “Hot-plate test (mouse)” it was 25 mg/kg.

With `CCC(=O)O[C@@]1(c2ccccc2)CCN2C[C@@H](c3cccc(OC)c3)CC[C@@H]2C1` (relative stereo) [rac-(9aβH)-2α-Phenyl-7β-(m-methoxyphenyl)-octahydro-2H-quinolizin-2-yl propionate HCl], the ED50 in the assay “Writhing test (mouse)” came to 2.8 mg/kg; in “Hot-plate test (mouse)” it was 12 mg/kg.

The term IC50 denotes the midpoint of a concentration-inhibition curve. On to `Cc1cc2[nH]c(=O)n([C@@H]3CCN4C[C@@H](c5ccccc5Cl)CC[C@@H]4C3)c2cc1C` (relative stereo) [rac-1-[(9aβH)-7β-(o-Chlorophenyl)octahydro-2H-quinolizin-2α-yl]-5,6-dimethyl-2-benzimidazolinone HCl], for which the IC50 in assay [2] worked out at 5 nM. In addition, in assay [1], the ED50 was 1.75 mg/kg and the ED10 amounted to 4.55 mg/kg.

In assay [2], `CC(C)(C)[C@]1(O)CCN2C[C@@H](c3ccc(Cl)cc3Cl)CC[C@@H]2C1` (relative stereo) [rac-(9aβ H)-2α-tert.-Butyl-7β-(2,4-dichlorophenyl) octahydro-2H-quinolizin-2-ol HCl] showed an IC50 of 79 nM. Moreover, in assay [1], the 50% effective dose (ED50) is 6.4 mg/kg and the ED10 amounted to 5.4 mg/kg.

In turn, `CC(C)(C)[C@]1(O)CCN2C[C@@H](c3ccc(Cl)cc3Cl)CC[C@@H]2C1` [(-)-(2S,7R,9aR)-2-tert.-Butyl-7-(2,4-dichlorophenyl) octahydro-2H-quinolizin-2-ol HCl] showed an IC50 in assay [2] of 41 nM. In assay [1], the ED50 was 4.7 mg/kg and the ED10 stood at 3.8 mg/kg.

Turning to `CCCCC1(OC(C)=O)CCN2CC(c3ccccc3)CCC2C1.Cl` (single isomer, unassigned; (+)) [(+)-2-Butyloctahydro-7-phenyl-2H-quinolizin-2-yl acetate HCl], the ED50 in the assay “Writhing test (mouse)” turned out to be 0.19 mg/kg; in the assay “Hot-plate test (mouse)”, 2.6 mg/kg.

On to `CC(C)(C)[C@]1(OC(=O)C(F)(F)F)CCN2C[C@@H](c3ccccc3)CC[C@@H]2C1` (relative stereo) [rac-(9aβH)-2α-tert.Butyl-7β-phenyl-octahydro-2H-quinolizin-2-yl trifluoroacetate HCl], for which the ED50 in “Writhing test (mouse)” came out at 8.7 mg/kg; in the assay “Hot-plate test (mouse)” it was 86 mg/kg.

On to `CC(=O)O[C@]1(c2ccccc2)CCN2C[C@@H](c3ccccc3Cl)CC[C@@H]2C1` (relative stereo) [rac-(9aβH)-2β-Phenyl-7β-(o-chlorophenyl)-octahydro-2H-quinolizin-2-yl acetate HCl], for which the figures for the ED50 in “Writhing test (mouse)” and in the assay “Hot-plate test (mouse)” were 116 mg/kg and 284 mg/kg, respectively.

On to `O=c1[nH]c2cc(C(F)(F)F)ccc2n1[C@@H]1CCN2C[C@@H](c3ccccc3Cl)CC[C@@H]2C1` (relative stereo) [rac-1-[(9aβH)-7β-(o-Chlorophenyl)octahydro-2H-quinolizin-2α-yl]-5-trifluoromethyl-2-benzimidazolinone HCl], for which the IC50 in assay [2] worked out at 10 nM. In assay [1], the ED50 was 0.21 mg/kg and the ED10 amounted to 0.41 mg/kg.

Source of the values: patent US4236010A, “Phenyl-quinolizidines” (Hoffmann-La Roche Inc., priority 1978, dated 1980).
